Reference: PMC10920428 (Applied Microbiology and Biotechnology, 2024)

Target: T1, homogentisate solanesyltransferase (CrHST) (Chlamydomonas reinhardtii, UniProt A1JHN0)
T1 construct: gene HST; N-terminal GST tag (pDEST15), expressed in E. coli BL21 AI
Assay: biochemical

T1 sequence (A1JHN0 51-370): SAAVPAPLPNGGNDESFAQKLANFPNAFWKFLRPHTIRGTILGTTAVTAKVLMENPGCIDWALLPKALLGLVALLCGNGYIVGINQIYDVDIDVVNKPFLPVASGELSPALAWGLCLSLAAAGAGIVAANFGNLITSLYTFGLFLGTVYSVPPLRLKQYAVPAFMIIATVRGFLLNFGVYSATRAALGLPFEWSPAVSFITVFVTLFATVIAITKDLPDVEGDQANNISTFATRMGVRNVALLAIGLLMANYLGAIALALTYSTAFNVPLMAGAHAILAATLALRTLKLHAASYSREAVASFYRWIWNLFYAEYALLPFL

- IC50: 3.63 ± 0.53 µM
SMILES: Cc1cccc(C2CC2)c1Oc1nnc(Cl)cc1O [DMC, Des-Morpholinocarbony Cyclopyrimorate]
